# From patent US7601746B2 (Shionogi & Co., Ltd., priority 2003, dated 2009)
# pEC50: −log10 of the molar value.
# Target: T1, human TPO receptor (hTPOR) (Homo sapiens, UniProt P40238)
# T1 construct: expressed in transfected cells; host or cells: BaF-B03 (murine IL-3 dependent cell line)
# T1 sequence (P40238 26-635): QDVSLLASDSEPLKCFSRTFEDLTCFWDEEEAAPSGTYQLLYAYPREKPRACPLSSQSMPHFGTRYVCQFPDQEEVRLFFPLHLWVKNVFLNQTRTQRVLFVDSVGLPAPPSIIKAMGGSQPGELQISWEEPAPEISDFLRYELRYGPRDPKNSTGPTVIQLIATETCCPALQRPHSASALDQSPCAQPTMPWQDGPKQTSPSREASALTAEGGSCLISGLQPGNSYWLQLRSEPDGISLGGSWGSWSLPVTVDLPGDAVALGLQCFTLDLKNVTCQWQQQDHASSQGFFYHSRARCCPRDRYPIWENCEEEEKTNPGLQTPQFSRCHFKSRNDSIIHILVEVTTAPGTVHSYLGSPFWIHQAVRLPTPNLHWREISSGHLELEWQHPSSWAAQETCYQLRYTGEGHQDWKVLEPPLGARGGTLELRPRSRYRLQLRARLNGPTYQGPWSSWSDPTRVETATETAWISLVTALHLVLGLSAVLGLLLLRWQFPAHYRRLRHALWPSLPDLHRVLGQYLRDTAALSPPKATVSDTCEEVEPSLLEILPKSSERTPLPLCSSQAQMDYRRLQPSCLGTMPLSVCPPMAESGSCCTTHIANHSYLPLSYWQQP
# Experiment: Thrombopoietic activity: proliferation of TPO dependent BaF/hTPOR cells (WST-1, absorbance at 450 nm)
# Type: cell-based
# Conditions: 20 h + 4 h WST-1, ED50 = half concentration of the concentration showing the maximum thrombopoietic activity, Table 1
# Method in brief: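 Proliferation read-out: WST-1 absorbance at 450 nm after 20 h compound exposure plus 4 h reagent, using IL-3-deprived BaF/hTPOR cells (5×10^4 per well) dependent on human TPO receptor signalling. ED50 defined as half the concentration producing maximal activity.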
row,pEC50,Compound
1,9.11,"CCCCCCCCC(OC)c1cccc(-c2csc(NC(=O)c3cc(Cl)c(C=C(C)C(=O)O)c(Cl)c3)n2)c1F (stereo not drawn) [Compound B72, 3-(2,6-dichloro-4-{4-[2-fluoro-3-(1-methyloxynonyl)phenyl]thiazol-2-ylcarbamoyl}phenyl)-2-methylacrylic acid]"
2,8.87,"CCCCCC(CCc1cccc(-c2csc(NC(=O)c3cc(Cl)c(C=C(C)C(=O)O)c(Cl)c3)n2)c1F)OC (stereo not drawn) [Compound B73, 3-(2,6-dichloro-4-{4-[2-fluoro-3-(3-methyloxyoctyl)phenyl]thiazol-2-ylcarbamoyl}phenyl)-2-methylacrylic acid]"
3,9.10,"CCC(OCCC(C)C)c1cccc(-c2csc(NC(=O)c3cc(Cl)c(C=C(C)C(=O)O)c(Cl)c3)n2)c1F (stereo not drawn) [Compound B74, 3-[2,6-dichloro-4-(4-{2-fluoro-3-[1-(3-methylbutyloxy)proptyl]phenyl}thiazol-2-ylcarbamoyl)phenyl]-2-methylacrylic acid]"
4,8.53,"CCCCCCCCCCOCc1cccc(-c2csc(NC(=O)c3cc(Cl)c(C=C(C)C(=O)O)c(Cl)c3)n2)c1F [Compound B76, 3-{2,6-dichloro-4-[4-(3-n-decyloxymethyl-2-fluorophenyl)thiazol-2-ylcarbamoyl]phenyl}-2-methylacrylic acid]"
5,8.51,"CCCCCOCc1cccc(-c2csc(NC(=O)c3cc(Cl)c(C=C(C)C(=O)O)c(Cl)c3)n2)c1F [Compound B77, 3-{2,6-dichloro-4-[4-(2-fluoro-3-{n-pentyloxymethyl}phenyl)thiazol-2-ylcarbamoyl]phenyl}-2-methylacrylic acid]"
6,9.01,"CCCOC(CCC)c1cccc(-c2csc(NC(=O)c3cc(Cl)c(C=C(C)C(=O)O)c(Cl)c3)n2)c1F (stereo not drawn) [Compound B78, 3-(2,6-dichloro-4-{4-[2-fluoro-3-(1-n-propyloxybutyl)phenyl]thiazol-2-ylcarbamoyl}phenyl)-2-methylacrylic acid]"
7,9.11,"CCCCOC(CCC)c1cccc(-c2csc(NC(=O)c3cc(Cl)c(C=C(C)C(=O)O)c(Cl)c3)n2)c1F (stereo not drawn) [Compound B79, 3-(4-{4-[3-(1-n-butyloxybutyl)-2-fluorophenyl]thiazol-2-ylcarbamoyl}-2,6-dichlorophenyl)-2-methylacrylic acid]"
8,9.15,"CCCCCOC(CCC)c1cccc(-c2csc(NC(=O)c3cc(Cl)c(C=C(C)C(=O)O)c(Cl)c3)n2)c1F (stereo not drawn) [Compound B80, 3-(2,6-dichloro-4-{4-[2-fluoro-3-(1-n-pentyloxybutyl)phenyl]thiazol-2-ylcarbamoyl}phenyl)-2-methylacrylic acid]"
9,8.86,"CCCOC(CC)c1cccc(-c2csc(NC(=O)c3cc(Cl)c(C=C(C)C(=O)O)c(Cl)c3)n2)c1F (stereo not drawn) [Compound B81, 3-(2,6-dichloro-4-{4-[2-fluoro-3-(1-n-propyloxypropyl)phenyl]thiazol-2-ylcarbamoyl}phenyl)-2-methylacrylic acid]"
10,8.97,"CCCCOC(CC)c1cccc(-c2csc(NC(=O)c3cc(Cl)c(C=C(C)C(=O)O)c(Cl)c3)n2)c1F (stereo not drawn) [Compound B82, 3-(4-{4-[3-(1-n-butyloxypropyl)-2-fluorophenyl]thiazol-2-ylcarbamoyl}-2,6-dichlorophenyl)-2-methylacrylic acid]"
11,9.14,"CCCCCCOC(CC)c1cccc(-c2csc(NC(=O)c3cc(Cl)c(C=C(C)C(=O)O)c(Cl)c3)n2)c1F (stereo not drawn) [Compound B83, 3-(2,6-dichloro-4-{4-[2-fluoro-3-(1-n-hexyloxypropyl)phenyl]thiazol-2-ylcarbamoyl}phenyl)-2-methylacrylic acid]"
12,8.99,"CC(=Cc1c(Cl)cc(C(=O)Nc2nc(-c3cccc(CCCOCCCC(C)C)c3F)cs2)cc1Cl)C(=O)O [Compound B84, 3-[2,6-dichloro-4-(4-[2-fluoro-3-[3-(4-methylpentyloxy)propyl]phenyl]thiazol-2-ylcarbamoyl)phenyl]-2-methylacrylic acid]"
